What follows are compounds tested against Replicase polyprotein 1ab (Severe acute respiratory syndrome coronavirus 2, UniProt P0DTD1) (assay: SARS-CoV-2 Coronavirus 3C Protease FRET Assay).
Method: IC50 values were calculated by fitting a curve of Vmax to experimental values with the controls (DMSO) as the top and bottom limits of the curve. […] GraphPad Prism is the analysis tool for all measurements.

Q: For `COC(=O)C[C@H](NC(=O)[C@@H]1CCCN1C(=O)c1cc2ccccc2[nH]1)C(=O)CF` [WO2022021841, 1], which Ki is on record?
A: 1100 nM

Q: Which Ki does the source give for `COC(=O)C[C@H](NC(=O)[C@@H]1[C@@H]2[C@H](CN1C(=O)/C=C/c1ccccc1)C2(C)C)C(=O)CF` [WO2022021841, 2] here?
A: 110 nM

Q: `O=C(N[C@@H](C[C@@H]1CCNC1=O)C(=O)CF)C1[C@H]2CCC[C@H]2CN1C(=O)COc1ccc(Cl)cc1Cl` (stereo partly drawn) [WO2022021841, 3] was tested. Which Ki did it give?
A: 18 nM

Q: `CC1CNC(=O)[C@@H]1C[C@H](NC(=O)C1[C@H]2CCC[C@H]2CN1C(=O)COc1ccc(Cl)cc1Cl)C(=O)CF` (stereo partly drawn) [WO2022021841, 4] was tested. Which Ki did it give?
A: 12 nM

Q: `CC1CNC(=O)[C@@H]1C[C@H](NC(=O)C1[C@H]2CCC[C@H]2CN1C(=O)COc1cccc(-c2ccccc2)c1)C(=O)CF` (stereo partly drawn) [WO2022021841, 5] was tested. Which Ki did it give?
A: 11 nM

Q: Which Ki does the source give for `CC1CNC(=O)[C@@H]1C[C@H](NC(=O)C1[C@@H]2[C@H](CN1C(=O)COc1ccc(Cl)cc1Cl)C2(C)C)C(=O)CF` (stereo partly drawn) [WO2022021841, 6] here?
A: 9 nM

Q: With `CC1CNC(=O)[C@@H]1C[C@H](NC(=O)C1[C@@H]2[C@H](CN1C(=O)COc1ccc(Cl)c(Cl)c1)C2(C)C)C(=O)CF` (stereo partly drawn) [WO2022021841, 7] as the compound, how does the Ki read?
A: 15 nM

Q: For `CC1CNC(=O)[C@@H]1C[C@H](NC(=O)C1[C@@H]2[C@H](CN1C(=O)COc1cccc(-c3ccc(Cl)cc3)c1)C2(C)C)C(=O)CF` (stereo partly drawn) [WO2022021841, 8], which Ki is on record?
A: 17 nM

Q: `CC1(C)[C@@H]2C(C(=O)N[C@H](C=O)Cc3ccccc3)N(C(=O)c3ccc4ccccc4n3)C[C@@H]21` (stereo partly drawn) [WO2022021841, 9] was tested. Which Ki did it give?
A: 24200 nM

Q: `CC1(C)[C@@H]2C(C(=O)N[C@H](C=O)Cc3ccccc3)N(C(=O)c3ccc4ccccc4c3)C[C@@H]21` (stereo partly drawn) [WO2022021841, 10] was tested. Which Ki did it give?
A: 585 nM

Q: For `CCC[C@@H](NC(=O)C1[C@@H]2CCC[C@H]2CN1C(=O)c1cc2ccccc2[nH]1)C(=O)C(=O)NC1CC1` (stereo partly drawn) [WO2022021841, 11], which Ki is on record?
A: 960 nM

Q: How did the Ki turn out when `CCC[C@@H](NC(=O)C1[C@@H]2CCC[C@H]2CN1C(=O)[C@@H](c1ccccc1)C(C)C)C(=O)C(=O)NC1CC1` (stereo partly drawn) [WO2022021841, 12] was run?
A: 16900 nM

Q: For `CCC[C@@H](NC(=O)C1C2[C@H](CN1C(=O)[C@@H](c1ccccc1)C(C)C)C2(C)C)C(=O)C(=O)NC1CC1` (stereo partly drawn) [WO2022021841, 13], which Ki is on record?
A: 82700 nM

Q: With `CC1(C)[C@@H]2C(C(=O)N[C@H](C=O)C[C@@H]3CCNC3=O)N(C(=O)c3ccc4ccccc4c3)C[C@@H]21` (stereo partly drawn) [WO2022021841, 16] as the compound, how does the Ki read?
A: 343 nM

Q: `C[C@H](OCc1ccccc1)C(=O)N1C[C@@H]2CCC[C@@H]2C1C(=O)N[C@H](C=O)C[C@@H]1CCNC1=O` (stereo partly drawn) [WO2022021841, 18] was tested. Which Ki did it give?
A: 28 nM

Q: `CC1(C)[C@@H]2C(C(=O)N[C@H](C=O)C[C@@H]3CCNC3=O)N(C(=O)COc3ccc4c(c3)OCO4)C[C@@H]21` (stereo partly drawn) [WO2022021841, 21] was tested. Which Ki did it give?
A: 73 nM

Q: How did the Ki turn out when `O=C[C@H](C[C@@H]1CCNC1=O)NC(=O)C1[C@@H]2CCC[C@H]2CN1C(=O)COc1ccc2c(c1)OCCO2` (stereo partly drawn) [WO2022021841, 22] was run?
A: 93 nM

Q: Which Ki does the source give for `COc1cccc(OCC(=O)N2C[C@H]3[C@@H](C2C(=O)N[C@H](C=O)C[C@@H]2CCNC2=O)C3(C)C)c1` (stereo partly drawn) [WO2022021841, 23] here?
A: 37 nM

Q: `O=C[C@H](C[C@@H]1CCNC1=O)NC(=O)C1[C@@H]2CCC[C@H]2CN1C(=O)CCc1ccc(F)c(F)c1` (stereo partly drawn) [WO2022021841, 25] was tested. Which Ki did it give?
A: 16 nM

Q: Which Ki does the source give for `COc1ccc(OC(C)C(=O)N2C[C@@H]3CCC[C@H]3C2C(=O)N[C@H](C=O)C[C@@H]2CCNC2=O)cc1` (stereo partly drawn) [WO2022021841, 29] here?
A: 78 nM

Q: How did the Ki turn out when `COc1ccc(OCC(=O)N2C[C@H]3[C@@H](C2C(=O)N[C@H](C=O)C[C@@H]2CCNC2=O)C3(C)C)cc1` (stereo partly drawn) [WO2022021841, 32] was run?
A: 36 nM

Q: For `COc1cc(OCC(=O)N2C[C@H]3[C@@H](C2C(=O)N[C@H](C=O)C[C@@H]2CCNC2=O)C3(C)C)cc(OC)c1OC` (stereo partly drawn) [WO2022021841, 35], which Ki is on record?
A: 51 nM

Q: Which Ki does the source give for `CC(C)(Oc1ccc(Cl)cc1Cl)C(=O)N1Cc2ccccc2CC1C(=O)N[C@H](C=O)C[C@@H]1CCNC1=O` (stereo partly drawn) [WO2022021841, 38] here?
A: 91 nM

Q: For `CC(C)(Oc1ccc(Cl)cc1Cl)C(=O)N1C[C@@H]2CCC[C@H]2C1C(=O)N[C@H](C=O)C[C@@H]1CCNC1=O` (stereo partly drawn) [WO2022021841, 39], which Ki is on record?
A: 33 nM

Q: How did the Ki turn out when `CC1CNC(=O)[C@@H]1C[C@@H](C=O)NC(=O)C1[C@@H]2CCC[C@H]2CN1C(=O)COc1ccc(Cl)cc1Cl` (stereo partly drawn) [WO2022021841, 40] was run?
A: 17 nM

Q: With `CC1CNC(=O)[C@@H]1C[C@@H](C=O)NC(=O)C1[C@@H]2CCC[C@H]2CN1C(=O)C(C)(C)Oc1ccc(Cl)cc1Cl` (stereo partly drawn) [WO2022021841, 41] as the compound, how does the Ki read?
A: 56 nM

Q: For `O=C(N[C@@H](C[C@@H]1CCNC1=O)C(=O)CCl)C1[C@@H]2CCC[C@H]2CN1C(=O)COc1ccc(Cl)cc1Cl` (stereo partly drawn) [WO2022021841, 42], which Ki is on record?
A: 19 nM

Q: Which Ki does the source give for `O=C[C@H](C[C@@H]1CCNC1=O)NC(=O)C1[C@@H]2CCC[C@H]2CN1C(=O)COc1cccc(-c2ccccc2)c1` (stereo partly drawn) [WO2022021841, 46] here?
A: 10 nM

Q: For `CC1CNC(=O)[C@@H]1C[C@@H](C=O)NC(=O)C1[C@@H]2CCC[C@H]2CN1C(=O)COc1cccc(-c2ccccc2)c1` (stereo partly drawn) [WO2022021841, 47], which Ki is on record?
A: 12 nM

Q: How did the Ki turn out when `CC1CNC(=O)[C@@H]1C[C@@H](C=O)NC(=O)C1[C@@H]2[C@H](CN1C(=O)COc1ccc(Cl)c(Cl)c1)C2(C)C` (stereo partly drawn) [WO2022021841, 48] was run?
A: 11 nM

Q: How did the Ki turn out when `CC1CNC(=O)[C@@H]1C[C@@H](C=O)NC(=O)C1[C@@H]2[C@H](CN1C(=O)COc1cccc(-c3ccc(Cl)cc3)c1)C2(C)C` (stereo partly drawn) [WO2022021841, 49] was run?
A: 22 nM

Q: How did the Ki turn out when `CC(C)(C)NC(=O)C(=O)[C@H](C[C@@H]1CCNC1=O)NC(=O)C1[C@@H]2CCC[C@H]2CN1C(=O)COc1ccc(Cl)cc1Cl` (stereo partly drawn) [WO2022021841, 50] was run?
A: 1190 nM

Q: Which Ki does the source give for `O=C(NCc1ccccc1)C(=O)[C@H](C[C@@H]1CCNC1=O)NC(=O)C1[C@@H]2CCC[C@H]2CN1C(=O)COc1ccc(Cl)cc1Cl` (stereo partly drawn) [WO2022021841, 51] here?
A: 50400 nM

Q: How did the Ki turn out when `O=C(NC1CC1)C(=O)[C@H](C[C@@H]1CCNC1=O)NC(=O)C1[C@@H]2CCC[C@H]2CN1C(=O)COc1ccc(Cl)cc1Cl` (stereo partly drawn) [WO2022021841, 52] was run?
A: 875 nM

Q: With `O=C(NCc1ccccn1)C(=O)[C@H](C[C@@H]1CCNC1=O)NC(=O)C1[C@@H]2CCC[C@H]2CN1C(=O)COc1ccc(Cl)cc1Cl` (stereo partly drawn) [WO2022021841, 53] as the compound, how does the Ki read?
A: 63100 nM

Q: Which Ki does the source give for `CC1(C)CNC(=O)[C@@H]1C[C@@H](C=O)NC(=O)C1[C@@H]2CCC[C@H]2CN1C(=O)COc1ccc(Cl)cc1Cl` (stereo partly drawn) [WO2022021841, 54] here?
A: 24 nM

Q: Which Ki does the source give for `CC1(C)CNC(=O)[C@@H]1C[C@@H](C=O)NC(=O)C1[C@H]2[C@H](CN1C(=O)COc1ccc(Cl)cc1Cl)C2(C)C` (stereo partly drawn) [WO2022021841, 55] here?
A: 31 nM

Q: For `CC1(C)[C@H]2CN(C(=O)COc3ccc(Cl)cc3Cl)C(C(=O)N[C@H](C=O)C[C@H]3C(=O)NCC3(F)F)[C@@H]21` (stereo partly drawn) [WO2022021841, 56], which Ki is on record?
A: 33 nM

Q: With `COc1ccc(CNC(=O)N2C[C@@H]3CCC[C@H]3C2C(=O)N[C@H](C=O)C[C@@H]2CCNC2=O)cc1` (stereo partly drawn) [WO2022021841, 57] as the compound, how does the Ki read?
A: 26 nM

Q: Which Ki does the source give for `O=C[C@H](C[C@@H]1CCNC1=O)NC(=O)C1[C@@H]2CCC[C@H]2CN1C(=S)NCc1ccc(F)cc1` (stereo partly drawn) [WO2022021841, 58] here?
A: 30 nM

Q: With `O=C[C@H](C[C@@H]1CCNC1=O)NC(=O)C1[C@@H]2CCC[C@H]2CN1C(=S)NCc1cccc(F)c1` (stereo partly drawn) [WO2022021841, 59] as the compound, how does the Ki read?
A: 37 nM

Q: `CC(C)(C)C(NC(=O)Cc1ccc(Cl)cc1Cl)C(=O)N1C[C@@H]2CCC[C@H]2C1C(=O)N[C@H](C=O)C[C@@H]1CCNC1=O` (stereo partly drawn) [WO2022021841, 60] was tested. Which Ki did it give?
A: 33 nM

Q: How did the Ki turn out when `CC(C)(C)C(NCc1ccc(Cl)cc1Cl)C(=O)N1C[C@@H]2CCC[C@H]2C1C(=O)N[C@H](C=O)C[C@@H]1CCNC1=O` (stereo partly drawn) [WO2022021841, 61] was run?
A: 39 nM

From BindingDB's records for patent WO2022021841 (Sichuan University, 2022)
